In article PMC7286421 (Hypertension (Dallas, Tex. : 1979), 2019):
Where a SMILES comes first, the peptide text is derived from it. The star is where a group is joined. Cbz = O=C(OCc1ccccc1)*

Experiments:
[1] = Plasma angiotensin peptide levels after i.p. Ang II injection; assay type: in vivo, mice
mouse serum = test: Ex vivo Ang-; assay type: biochemical
kidney lysates = test: Ex vivo Ang-; assay type: biochemical, mouse
lung lysates = test: Ex vivo Ang-; conditions: for peak Ang-(1-7) at 15 min: no inhibitor (Figure 4b)
lung tissue = test: Ex vivo Ang-; assay type: biochemical, mouse; conditions: lung tissue (Supplement Figure S4b)
PRCP = conditions: selective for POP in the 10 μM range; cited from earlier work
Ang II = test: In vitro Phenylalanine formation from Ang II by recombinant enzymes; assay type: biochemical; conditions: equivalent amounts of murine recombinant enzymes, fluorometric (Figure 6c)
[2] = WT mice, Ang II i.p., 5 minutes, LC/MS-MS, n=6, mean ± SE
[3] = ACE2−/−/PRCP−/− sera incubated with Ang II, n=3
[4] = WT sera incubated with Ang II, ZPP 10^−5M, n=6

CC[C@H](C)[C@H](NC(=O)[C@H](Cc1ccc(O)cc1)NC(=O)[C@@H](NC(=O)[C@H](CCCNC(=N)N)NC(=O)[C@@H](N)CC(=O)O)C(C)C)C(=O)N[C@@H](Cc1cnc[nH]1)C(=O)N1CCC[C@H]1C(=O)N[C@@H](Cc1ccccc1)C(=O)O [Ang II, Angiotensin II]
levels of plasma Ang-(1-7) at 30 minutes ([1]; 30 minutes post infusion, WT, WT treated with ZPP, ACE2−/−/PRCP−/− (Figure S3b)): decreased markedly
levels of plasma Ang II at 30 minutes ([1]; 30 minutes post infusion, all four groups studied (Figure S3a)): markedly decreased
plasma Ang-(1-7) levels ([1]; ACE2−/−/PRCP−/− mice, 5 minutes after Ang II infusion, no ZPP (Figure 2b)): 537 ± 70 fmol/mL
plasma Ang-(1-7) levels ([1]; POP−/− mice, 5 minutes after Ang II i.p. (Figure 3d)): 309 ± 46 fmol/mL
plasma Ang-(1-7) to Ang II ratio ([1]; POP−/− mice, after Ang II infusion): 0.23±0.02
plasma Ang-(1-7) levels ([1]; WT mice (controls of POP−/−), 5 minutes after Ang II i.p. (Figure 3d)): 472 ± 28 fmol/mL
plasma Ang-(1-7) levels ([1]; WT mice, 5 minutes after Ang II infusion, no ZPP (Figure 2b)): 563 ± 51 fmol/mL
plasma Ang II levels in Ang II-infused vs control animals ([1]; WT mice, 5 minutes, ELISA): about 100 fold
plasma Ang-(1-7) levels ([1]; WT mice, Ang II 0.2 μg/g BW i.p., 5 minutes, ELISA, n=6, mean ± SE): 1268 ± 439 fmol/mL
plasma Ang-(1-5) [1, 2]: 233 ± 24 fmol/mL
plasma Ang-(1-7) [1, 2]: 854 ± 222 fmol/mL
plasma Ang-(1-7) levels ([1]; WT mice, Ang II i.p., 5 minutes, RIA, same plasma samples, mean ± SE): 1702 ± 268 fmol/mL
Ang-(1-7) formed at 15 minutes (mouse serum; [3]): 17.8 ± 6 pmol/mL
Ang-(1-7) formed at 30 minutes (mouse serum; [3]): 17 ± 7 pmol/mL
Ang-(1-7) formed at 30 minutes (mouse serum; WT sera incubated with Ang II, no ZPP, n=6): 31.8 ± 6.7 pmol/mL
amount of Ang-(1-7) formed from Ang II (mouse serum; sera from POP−/− mice (n=4) compared to ACE2−/−/PRCP−/− and WT mice): markedly reduced
peak Ang-(1-7) levels (kidney lysates; ACE2−/−/PRCP−/− kidney lysates spiked with Ang II, no inhibitor): 94 ± 18 pmol/mL
peak Ang-(1-7) formation at 15 minutes (kidney lysates; WT kidney lysates spiked with Ang II, no inhibitor, n=10): 417 ± 32 pmol/mL
Ang-(1-7) formation from Ang II over time, POP−/− vs WT (kidney lysates; kidneys from WT and POP−/− mice, no inhibitor (Figure 4c)): almost identical
peak Ang-(1-7) at 15 min (lung lysates; ACE2−/−/PRCP−/− lung lysates incubated with Ang II): 313 ± 31 pmol/mL
peak Ang-(1-7) at 15 min (lung lysates; WT lung lysates incubated with Ang II): 230 ± 33 pmol/mL
Ang-(1-7) formation from Ang II (lung lysates; lung lysates from POP−/− mice, no inhibitor (Figure 4d)): almost undetectable
peak Ang-(1-7) formation at 15 minutes (lung lysates; lung lysates, Ang II without S-17092 (Supplement figure S4a)): 182.8 ± 23 pmol/mL

CC(C)C[C@H](N[C@@H](Cc1cncn1Cc1cc(Cl)cc(Cl)c1)C(=O)O)C(=O)O [MLN-4760]
generation of Ang-(1-7) from Ang II with MLN-4760 (kidney lysates; POP−/− kidney lysates, MLN-4760 10^−5M (Figure 4c)): completely obliterated
effect of MLN-4760 on Ang-(1-7) formation (lung lysates; POP−/− lungs (Figure 4d)): no effect

O=C(O)CNC(=O)C(CS)Cc1ccccc1 (stereo not drawn) [Thiorphan]
peak formation of Ang-(1-7) from exogenous Ang I with inhibitor (lung tissue): reduced the peak level of Ang-(1-7) from Ang I to an extent similar to S-17092

O=C[C@@H]1CCCN1C(=O)[C@@H]1CCCN1C(=O)OCc1ccccc1 [ZPP, Z-Pro-Prolinal] (Cbz-Pro-Pro-aldehyde)
Ang-(1-7) formed at 15 minutes with ZPP (mouse serum; [4]): 4.5 ± 4.5 pmol/mL
Ang-(1-7) formed at 30 minutes with ZPP (mouse serum; [4]): 8.9 ± 4.5 pmol/mL
lowering of Ang-(1-7) formation at 15 minutes (mouse serum; WT sera, ZPP 10^−5M): 85,8%
lowering of Ang-(1-7) formation at 30 minutes (mouse serum; WT sera, ZPP 10^−5M): 72%
Ang-(1-7) levels with ZPP (kidney lysates; ACE2−/−/PRCP−/− kidney lysates, ZPP, n=7, all time points assessed): undetectable
Ang-(1-7) formation at 15 minutes with ZPP (kidney lysates; WT kidney lysates spiked with Ang II plus ZPP): 417 ± 32 pmol/mL
Ang-(1-7) formation from Ang II with ZPP (lung lysates; lung lysates from both WT and ACE2−/−/PRCP−/− mice (Figure 4b)): completely prevented
concentration at which ZPP also inhibits PRCP (PRCP): > 100 µM

mrPOP: murine recombinant Prolyl Oligopeptidase
Phenylalanine generation from Ang II (Ang II): 127±12 RFU/ng

B1: mrACE2: murine recombinant Angiotensin Converting Enzyme 2 (protein, UniProt Q8R0I0 18-805, looked up)
Angiotensin-converting enzyme …: QSLTEENAKTFLNNFNQEAEDLSYQSSLASWNYNTNITEENAQKMSEAAAKWSAFYEEQSKTAQSFSLQEIQTPIIKRQLQALQQSGSSALSADKNKQLNTILNTMSTIYSTGKVCNPKNPQECLLLEPGLDEIMATSTDYNSRLWAWEGWRAEVGKQLRPLYEEYVVLKNEMARANNYNDYGDYWRGDYEAEGADGYNYNRNQLIEDVERTFAEIKPLYEHLHAYVRRKLMDTYPSYISPTGCLPAHLLGDMWGRFWTNLYPLTVPFAQKPNIDVTDAMMNQGWDAERIFQEAEKFFVSVGLPHMTQGFWANSMLTEPADGRKVVCHPTAWDLGHGDFRIKMCTKVTMDNFLTAHHEMGHIQYDMAYARQPFLLRNGANEGFHEAVGEIMSLSAATPKHLKSIGLLPSDFQEDSETEINFLLKQALTIVGTLPFTYMLEKWRWMVFRGEIPKEQWMKKWWEMKREIVGVVEPLPHDETYCDPASLFHVSNDYSFIRYYTRTIYQFQFQEALCQAAKYNGSLHKCDISNSTEAGQKLLKMLSLGNSEPWTKALENVVGARNMDVKPLLNYFQPLFDWLKEQNRNSFVGWNTEWSPYADQSIKVRISLKSALGANAYEWTNNEMFLFRSSVAYAMRKYFSIIKNQTVPFLEEDVRVSDLKPRVSFYFFVTSPQNVSDVIPRSEVEDAIRMSRGRINDVFGLNDNSLEFLGIHPTLEPPYQPPVTIWLIIFGVVMALVVVGIIILIVTGIKGRKKKNETKREENPYDSMDIGKGESNAGFQNSDDAQTSF
Phenylalanine generation from Ang II (Ang II): 789±29 RFU/ng
